# Results as given in patent US20180116983A1, “COMPOUNDS FOR TREATING DISORDERS ASSOCIATED WITH BK CHANNEL MODULATION” (Canbex Therapeutics Limited, priority 2015, published 2018).
# “Also recorded” adds a separate entry of the source.
# Experiments:
# [1] = Tolerability on repeated dosing; type: in vivo, mouse
# [2] = system: C57BL/6.Fmr1 knockout mice; experiment: Open field test in Fmr1 knockout mice; type: in vivo, mouse; settings: 2 mg/kg i.v.
# Experimental: (§1) Animals: C57BL/6.J. Fmr1-K02 mice, which have a deletion of the promoter and exonl of the Fmr1 gene (Mientjes et al., 2006) and C57BL/6J wild type (WT) were originated from the Jackson laboratory (Ann Harbor, USA). Mice were housed in groups (4-6 per cage) and all animals were provided with ad libitum food and water unless otherwise stated. Mice were maintained on a 12 h light/12 h dark cycle (lights off 19:00 to 7:00) in a temperature-controlled environment (21±1° C.). Testing was conducted in the light phase. Mice were housed in commercial cages and experiments were performed in line with the United Kingdom Animals (Scientific procedures) Act 1986. […]
# (§2) Drug Treatment: VSN16R was dissolved in saline for injection intravenously via a tail vein using 2 mg/kg a 30 g needle in a volume of 0.1 ml. […] The eye condition (runny eyes or porphyria, ptosis), gait appearance, tremor, tail tone, reactivity to handling was assessed to detect adverse behavioural effect.
# Open field: The open field apparatus was used to test multiple processes including anxiety/hyperactivity and habituation to a novel environment, in which decreased exploration as a function of repeated exposure to the same environment is taken as an index of memory. […] The number of squares entered (whole body) (locomotor activity) and rears (both front paws off the ground, but not as part of grooming) were counted. […]
# [3] = target: T1, BKCa channels formed by the exon-less alpha subunit (Homo sapiens, UniProt Q12791); experiment: Whole-cell BKCa current in HEK293 cells expressing the alpha subunit alone; type: cell-based; settings: 20 μM
# T1 construct: expressed in transfected cells; host or cells: HEK293
# [4] = Intraocular pressure (IOP) after topical application; type: in vivo, rats; settings: for IOP, mean: BL 11.18
# Experimental: The effect of VSN16R on IOP was measured using the techniques described in the literature (Guo L. et aI, Investigative Ophthalmology & Visual Science, January 2005, Vol 46, No. 1 p 175-182; Guo L. et al, Investigative Ophthalmology & Visual Science, February 2006, Vol 47, No. 2 p 626-633; Cordeiro F. et al, PNAS, Aug. 14, 2007; Vol 104; No. 33, p 13444-13449; Cordeiro F. et al, PNAS, Sep. 7, 2004; Vol 101; No. 36, p 13352-13356).
# mesenteric arteries = settings: cited from earlier work
# KNCMA1 = target: T2, KNCMA1 (Sus scrofa, UniProt O18866); experiment: Inside-out patch clamp of pig aortic endothelial cells; type: cell-based
# T2 construct: endogenous in cells; host or cells: primary pig aortic endothelial cells
# [5] = Known efficacious oral dose (model not stated); type: in vivo; settings: p.o.
# [6] = system: C57BL/6.Fmr1 knockout mice; experiment: Marble burying in Fmr1 knockout mice; type: in vivo, mouse; settings: 2 mg/kg i.v., 30 min
# Experimental: as §1, §2
# Marble burying: Mice will dig as part of their typical behaviours and this was detected using transparent plastic cages were filled with a 10 cm deep layer of sawdust on top of which 10 glass marbles were placed in two rows. Each animal was left undisturbed in such a cage for 30 min, after which the number of marbles that were buried to at least ⅔ of their depth was recorded. […]
# BK channel = BK channel (Homo sapiens, UniProt Q12791); experiment: Whole-cell patch clamp, BK current and membrane potential in EA.hy926 cells; type: cell-based; design: The human umbilical vein derived endothelial cell line, EA.hy926; endogenous in cells; host or cells: EA.hy926 human endothelial cell line
# Experimental: The human umbilical vein derived endothelial cell line, EA.hy926 (Edgell et al., Proc Natl Acad Sci USA. 1983 June; 80(12): 3734-7) at passage >45 was grown in DMEM containing 10% FCS and 1% HAT (5 mM hypoxanthine, 20 μM aminopterin, 0.8 mM thymidine) and cells were maintained in an incubator at 37° C. in 5% CO2 atmosphere. Cells were plated on either 10 mm (for patch-clamp recordings) or 30 mm glass cover slips (for Ca^2+ measurements).
# Membrane potential of EA.hy926 cells was recorded using the perforated patch clamp technique as described previously (Bondarenko et al, 2010, Br. J. Pharmacol. 161, 308-320). For membrane potential recordings from EA.hy926 cells the standard bath solution contained (in mM): 140 NaCl, 5 KCl, 1.2 MgCl2, 10 HEPES, 10 glucose, 2.4 CaCl2, patch pipettes were filled with a solution containing (in mmol/L): 140 KCl; 0.2 EGTA; 10 HEPES (pH adjusted to 7.2 using KOH). The resistance of the pipettes was 3-5 MΩ for whole cell and 6-8 MΩ for single channel recordings.
# T1 sequence (Q12791 1-1178 isoform Q12791-5): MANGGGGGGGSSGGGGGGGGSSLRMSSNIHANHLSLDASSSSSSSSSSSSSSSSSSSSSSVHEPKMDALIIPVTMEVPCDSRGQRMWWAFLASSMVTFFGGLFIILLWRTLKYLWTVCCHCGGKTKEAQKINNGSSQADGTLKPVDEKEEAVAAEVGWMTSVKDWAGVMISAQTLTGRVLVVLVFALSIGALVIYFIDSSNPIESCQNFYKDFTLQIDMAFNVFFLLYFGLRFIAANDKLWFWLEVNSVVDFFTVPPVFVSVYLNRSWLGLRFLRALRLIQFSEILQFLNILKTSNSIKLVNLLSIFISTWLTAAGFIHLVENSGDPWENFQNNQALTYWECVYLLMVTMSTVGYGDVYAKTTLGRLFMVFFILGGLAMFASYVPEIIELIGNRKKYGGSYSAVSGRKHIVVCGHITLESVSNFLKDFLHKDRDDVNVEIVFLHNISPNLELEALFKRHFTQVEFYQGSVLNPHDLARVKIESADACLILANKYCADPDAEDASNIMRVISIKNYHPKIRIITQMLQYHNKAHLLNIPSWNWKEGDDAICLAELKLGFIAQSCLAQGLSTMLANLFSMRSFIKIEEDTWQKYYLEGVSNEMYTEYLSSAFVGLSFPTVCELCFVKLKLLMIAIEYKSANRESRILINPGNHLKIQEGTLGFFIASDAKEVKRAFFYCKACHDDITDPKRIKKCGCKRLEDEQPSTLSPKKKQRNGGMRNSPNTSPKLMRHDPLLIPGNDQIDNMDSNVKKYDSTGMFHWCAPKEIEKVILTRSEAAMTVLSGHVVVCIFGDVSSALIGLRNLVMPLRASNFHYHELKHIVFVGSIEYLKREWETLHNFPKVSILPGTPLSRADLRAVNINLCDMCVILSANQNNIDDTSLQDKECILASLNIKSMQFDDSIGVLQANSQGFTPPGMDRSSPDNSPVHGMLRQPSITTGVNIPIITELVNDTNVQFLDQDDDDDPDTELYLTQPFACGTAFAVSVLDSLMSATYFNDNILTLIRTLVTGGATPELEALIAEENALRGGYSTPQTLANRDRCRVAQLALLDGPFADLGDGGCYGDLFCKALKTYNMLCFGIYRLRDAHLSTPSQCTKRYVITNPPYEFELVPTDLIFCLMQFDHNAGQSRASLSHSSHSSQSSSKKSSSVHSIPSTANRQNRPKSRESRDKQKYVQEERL
# Sequence of BK channel (Q12791 1-1178 isoform Q12791-5): as above
# Sequence of BK channel (Q86W47 whole entry partner): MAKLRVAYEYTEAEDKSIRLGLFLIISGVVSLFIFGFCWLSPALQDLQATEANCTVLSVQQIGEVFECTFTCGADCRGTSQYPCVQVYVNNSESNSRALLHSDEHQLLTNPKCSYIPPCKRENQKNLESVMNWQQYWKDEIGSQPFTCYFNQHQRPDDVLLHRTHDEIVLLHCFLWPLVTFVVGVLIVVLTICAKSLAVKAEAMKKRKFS
# T2 sequence (O18866 whole entry): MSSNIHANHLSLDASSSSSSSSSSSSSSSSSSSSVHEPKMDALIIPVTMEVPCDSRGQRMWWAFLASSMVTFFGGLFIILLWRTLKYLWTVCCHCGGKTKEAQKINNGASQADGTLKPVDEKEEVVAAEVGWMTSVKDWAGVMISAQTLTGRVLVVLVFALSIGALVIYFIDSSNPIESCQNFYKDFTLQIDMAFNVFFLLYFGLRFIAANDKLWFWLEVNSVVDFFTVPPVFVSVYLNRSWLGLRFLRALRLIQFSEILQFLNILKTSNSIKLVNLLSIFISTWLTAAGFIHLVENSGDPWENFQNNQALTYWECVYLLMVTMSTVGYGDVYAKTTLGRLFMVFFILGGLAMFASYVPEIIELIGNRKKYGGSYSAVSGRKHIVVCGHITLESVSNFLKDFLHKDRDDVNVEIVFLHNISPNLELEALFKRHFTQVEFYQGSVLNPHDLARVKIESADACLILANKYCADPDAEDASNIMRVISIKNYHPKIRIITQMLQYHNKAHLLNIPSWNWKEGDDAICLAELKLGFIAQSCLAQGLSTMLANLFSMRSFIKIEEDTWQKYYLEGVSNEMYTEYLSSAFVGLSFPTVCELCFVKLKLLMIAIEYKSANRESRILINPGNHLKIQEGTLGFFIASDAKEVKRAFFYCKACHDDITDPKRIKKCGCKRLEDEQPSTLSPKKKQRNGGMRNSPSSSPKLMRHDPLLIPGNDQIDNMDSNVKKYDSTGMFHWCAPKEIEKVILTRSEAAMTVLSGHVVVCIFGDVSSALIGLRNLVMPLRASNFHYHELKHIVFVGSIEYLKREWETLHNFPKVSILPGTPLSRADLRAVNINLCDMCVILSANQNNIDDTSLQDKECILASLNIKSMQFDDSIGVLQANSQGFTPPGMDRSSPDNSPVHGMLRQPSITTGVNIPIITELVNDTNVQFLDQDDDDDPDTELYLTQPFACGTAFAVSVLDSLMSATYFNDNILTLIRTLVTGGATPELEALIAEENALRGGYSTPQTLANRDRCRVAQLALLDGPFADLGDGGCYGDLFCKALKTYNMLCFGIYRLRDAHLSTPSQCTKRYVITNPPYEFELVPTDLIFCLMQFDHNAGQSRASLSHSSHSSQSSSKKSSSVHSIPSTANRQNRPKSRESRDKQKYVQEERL
smiles,measurement,setting,value
C[C@H](CO)NC(=O)c1cccc(/C=C\CCCC(=O)N(C)C)c1 [VSN16R],tolerability,[1]; 2 mg/kg i.v. over 2 weeks,well tolerated and no instances of toxicity were observed; also recorded: well tolerated
same,tolerable dose,"[1]; daily, p.o.",≥ 1000 mg/kg
same,"open field activity (hyperactivity, memory)","[2]; Fmr1 knockout mice, baseline, 10 min, 24 h, 2 mg/kg",inhibits the hyperactivity and memory deficient; also recorded: movement behaviours were comparable to that observed in wildtype mice; also recorded: normalise the memory and exploratory behaviours to the level of wildtype mice
same,open field activity,[2]; wildtype mice,exhibit comparable movement behaviour to vehicle-treated wildtype mice
same,enhancement of BKCa current,"[3]; HEK293, steps −40 mV to +70 mV, 200 nM calcium",not responsive; also recorded: does not act on BKCa channels formed by the exon-less alpha subunit; also recorded: did not display any enhancing effect on the current; also recorded: did not affect the BKCa current at any voltage; also recorded: did not enhance BKCa currents
same,activation voltage / voltage-dependence of activation of BKCa current,"[3]; intracellular calcium 1 μM, 200 nM, nominally 0 M",did not shift the voltage-depence of activation; also recorded: did not affect the activation voltage of BKCa current
same,"IOP, mean","[4]; 0.5 h after VSN16R, p<0.05",9.82 mmHg
same,"IOP, mean","[4]; 1 h after VSN16R, not significant",10.79 mmHg
same,effect on intraocular pressure,"[4]; topical to the eye, normal rats",reduces intraocular pressure
same,action on smooth muscle carrying the β1 subunit,mesenteric arteries,does not act on smooth muscle
same,response in inside-out patch,KNCMA1,does not give a response
same,known efficacy dose,[5],≥ 1 mg/kg
same,digging behaviour (marbles buried),[6],inhibits the development of Exaggerated Digging Behaviours; also recorded: significantly (P<0.001) limited the exaggerated behaviour
same,membrane potential,BK channel; EA.hy926 cells,induces sustained hyperpolarisation
same,whole-cell BK current,"BK channel; human EA.hy926 cells, current blocked by paxilline",induces a BKca specific current; also recorded: induces currents that are sensitive to paxilline
